Assays:
in vitro = in vitro ADME; conditions: plasma
[1] = test system: human red blood cells (hRBC); test: Hemolysis; assay type: cell-based
Outline: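 Washed fresh human erythrocytes (20% v/v, about 0.9×10^9 cells/ml final) incubated with peptide at 100 μM for 1 h at 37° C. Supernatant diluted 20-fold and OD540 read. Percent hemolysis relative to 0.1% Triton X-100 in H2O (100%), with PBS alone as 0%.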

**Q.** What does the source list for N=C(N)NCCC[C@@H]1NC(=O)[C@@H]2CSSC[C@H](NC(=O)[C@H](Cc3ccc4ccccc4c3)NC(=O)[C@H](CCCNC(=N)N)NC(=O)[C@H](CCCNC(=N)N)NC(=O)[C@H]3CCCN3C(=O)CNC1=O)C(=O)N[C@@H](Cc1ccc(O)cc1)C(=O)N[C@@H](CCCNC(N)=O)C(=O)N[C@@H](CCCCN)C(=O)N1CCC[C@@H]1C(=O)N1CCC[C@H]1C(=O)N[C@@H](Cc1ccc(O)cc1)C(=O)N[C@@H](CCCNC(=N)N)C(=O)N[C@@H](CCCNC(N)=O)C(=O)N2 [Ex. 51]?
**A.** half-life at 10 μM (in vitro; human): 4.77 h; half-life at 10 μM (in vitro; rat): > 5 h; Hemolysis at 100 μM [1]: 0%
